Patent US6541619B1 (Daewoong Pharmaceutical Co., Ltd., priority 1997, dated 2003)

What was measured:
yeast t-RNA = assay: RNase activity on yeast t-RNA (OD 260 nm); assay type: biochemical; conditions: relative to angiogenin; 37° C., 2 hours
Description: 50 μl of sample containing a fusion protein was mixed with 50 μl of yeast t-RNA mixture containing reaction buffer composed of 120 mM HEPES, 120 mM NaCl, 0.004% BSA and incubated at 37° C. for 2 hours. Reaction was interrupted by an equal volume of 6% perchloric acid. Subsequently, the reaction mixture was centrifuged for 10 minutes and used to measure optical density at 260 nm from which the standard curve was made to measure RNase activity. Activities of the samples were compared with that of angiogenin(see: Table 2).

MCF-7 = assay: Cytotoxicity to breast cancer cells in vitro (MTT); assay type: cell-based, human; conditions: MCF-7, serum-free media, 2 days
Description: In order to evaluate activity of the fusion protein in vitro, breast cancer cell line, MCF-7(ATCC-HTB22), was cultured in DMEM supplemented with 10% FBS. Cells were plated on 96-well plates at 1×10^4 cells/ml and cultured for 1 day. Medium was replaced with serum free-media containing control, sample, and 5-fluorouracil(for comparison) and cultured for 2 days, survival rate was measured with MTT(3-([…]-2-yl)-2,5-diphenyltetrazolium bromide), and IC50 was calculated(see: Table 3).

CHO-K1 cells = assay: Cytotoxicity to CHO-K1 cells that do not express hEGF receptors (MTT); assay type: cell-based; conditions: CHO-K1, serum-free media, 2 days
Description: Cells were cultured on 96 well plates at 1×10^4 cells/ml for 1 day, and received serum-free media containing control and samples, and incubated for additional 2 days. Survival rate of the cells was measured with MTT, in an analogous manner as in Example 15(see: Table 4).

A431 tumor = assay: Anticancer effect in vivo, A431 tumor transplanted in nude mouse
Description: To evaluate anticancer activity of the fusion protein in vivo, A431 cultured cells were transferred subcutaneously to the abdominal region of an immunodeficient nude mouse(20-25 g body weight) at 2×10^7 in 0.2 ml. When the proper size of tumor was formed, tumor was removed from the mouse under sterilization condition and cut into pieces of 2-3 mm to be transferred subcutaneously with a troca. When the size of the transplanted tumor of the nude mouse reached […], mice were divided into 5 groups(6 mice in one group) for i.v. injection. 100 μg/kg body weight of the fusion protein and angiogenin were administered by i.v. injection every 3 day for 4 weeks. After final administration, the area of the tumor-surface was measured by vernier calipers.
The tumor cells were excised after 4 weeks and measured for the weight(see: Table 5).

Row | Compound | RNase Activity(%) (yeast t-RNA) | IC50 (MCF-7) | IC50 (CHO-K1 cells) | Mean tumor-surface B (after 4 weeks) (A431 tumor; 100 μg/kg i.v. every 3 day for 4 weeks, after 4 weeks) | Mean tumor-surface A (on the day of administration) (A431 tumor; 100 μg/kg i.v. every 3 day for 4 weeks, day of administration) | Mean tumor-surface B/A (A431 tumor; ratio of surface after 4 weeks to day of administration) | Mean tumor weight (A431 tumor; tumor excised after 4 weeks, 100 μg/kg i.v. every 3 day) | IC50 (CHO-K1 cells; Cricetulus griseus, 48 h)
1 | Angiogenin: human angiogenin, 14.4 kD protein consisting of 123 amino acids, ribonuclease superfamily, SEQ ID No:2 | 100% | > 100 nM | > 100 nM | 477.2 ± 6.7 mm^2 | 79.3 ± 2.1 mm^2 | 6.0 | 5.0 ± 0.7 g | 
2 | hEGF-angiogenin: fusion protein of EGF-angiogenin expressed from pTE4083, SEQ ID No:19 | 65-90% |  |  |  |  |  |  | 
3 | O=c1[nH]cc(F)c(=O)[nH]1 [5-fluorouracil, reference compound] |  |  |  |  |  |  |  | 49.5 nM
